Holding throughout (test): NCI anticancer screen, dose series, 48 h
Assay [1] deals with 786-0 renal.
In assay [2] the test system is HCT-15 colon.
The test system of assay [3] is KM12 colon.
Assay [4] relates to MOLT-4 leukemia.
Assay [5] deals with SF-268 CNS.
Assay [6] concerns SW-620 colon.
For assay [7], the system named is UACC-62 melanoma.
Assay [8] relates to OVCAR-5 ovarian.
Assay [9] deals with T-47D breast.

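Results reflect a 48-hour exposure of cells in 96-well plates to compound at five concentrations. Abbreviation: GI50, concentration required for 50% inhibition of growth. TGI marks complete inhibition of growth.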

For the compound `C1C[OH+]CC[OH+]CCNCC[OH+]CC[OH+]CCN1.N.[Cl-].[Pt+4]`, the GI50 in assay [1] is 3.98 µM; in [2], 20.2 µM; in [3], 19 µM; in assay [4] it was 3.89 µM; in assay [5], 1.99 µM; in [6], 7.62 µM. Further, the GI50 in [7] was 3.39 µM. In addition, the TGI in [1] is 39.2 µM; in assay [2], 71.6 µM; in [3], 48.7 µM; in assay [4] it was 36.3 µM; in assay [5], 14.5 µM; in assay [6] it was above 100 µM. In assay [7], this compound had a TGI of 14.9 µM.
As for `N#C/C(=C\c1ccc(O)c(O)c1)C(N)=S`, the TGI in assay [1], in assay [2], in assay [3], in assay [4], in assay [8] and in [5] was above 100 µM each time. The TGI in assay [6] and in [7] was above 100 µM in each case.
With `COc1ccc2nc(-c3cccs3)cc(C(O)CN3CCSCC3)c2c1` (stereo not given), the TGI is 46.2 µM in [1]; 57.8 µM in assay [2]; 74.2 µM in assay [3]; 56.3 µM in assay [4]; 59.8 µM in assay [8]; above 100 µM in [5]. For the same compound, the TGI amounted to 93.7 µM in assay [6] and 38.6 µM in assay [7].
Turning to `C#CCOCn1cnc2c(Cl)ncnc21`, the TGI in assay [1], in assay [3], in assay [4], in assay [8], in [5] and in assay [6] was above 100 µM in each case. The compound also returned a TGI in assay [7] above 100 µM.
`CCCCCCCCCCCC(=O)OCC1OC(n2cc(F)c(=O)[nH]c2=O)C(NC(=O)OCc2ccccc2)C(OC(=O)CCCCCCCCCCC)C1O` (stereo not given): the TGI in assay [1], in [2], in assay [3], in assay [4], in assay [8] and in assay [5] was above 100 µM throughout. Further, the TGI in [6] and in assay [7] was above 100 µM each time.
With `NNC(=O)/C(=C/c1ccc(Cl)cc1Cl)NC(=O)c1ccccc1`, the TGI in assay [1], in assay [2], in assay [3], in [4], in assay [8] and in assay [5] was above 100 µM in each case. Besides, the TGI in [6] and in assay [7] was above 100 µM throughout.
On to `O=c1/c(=C/c2ccccc2F)sc2nc3ccccc3n12`, for which the TGI in [1], in assay [2], in assay [4], in [8], in assay [5] and in assay [6] was above 100 µM each time. Also, the TGI in assay [7] was above 100 µM.
In the case of `O=[N+]([O-])C1C2C=CC(C2)[C@H]1c1ccco1` (stereo not given in full), the TGI in assay [1], in assay [2], in [3], in assay [4], in assay [8] and in [5] was above 100 µM each time. Also, the TGI in assay [6] and in assay [7] was above 100 µM each time.
Turning to `COC(C(=O)[O][Ge]([CH3])([CH3])[CH3])c1ccccc1` (stereo not given), the GI50 in assay [1], in [2], in [3], in [4], in [8] and in [5] was above 100 µM in each case. Besides, the GI50 in assay [6] and in assay [7] was above 100 µM each time. The TGI in [1], in [2], in [3], in assay [4], in assay [8] and in assay [5] was above 100 µM in each case. Moreover, the TGI in assay [6] and in [7] was above 100 µM throughout.
On to `CC1C=C(OC(=O)c2ccccc2)C(=O)C(n2cc(F)c(=O)[nH]c2=O)O1` (stereo not given), for which the TGI in assay [1], in assay [2], in assay [3], in assay [4], in assay [8] and in assay [5] was above 100 µM throughout. Moreover, the TGI in assay [6] and in [7] was above 100 µM throughout.
As to `CCN(CC)c1ccc(C(=O)c2ccccc2C(=O)O)c(O)c1`, the TGI in assay [1], in assay [2], in [3], in assay [4], in [8] and in [5] was above 100 µM in each case. For the same compound, the TGI in assay [6] and in assay [7] was above 100 µM in each case.
Turning to `C/C(=N\NS(=O)(=O)c1ccccc1)c1ccc(Cl)c(Cl)c1`, the TGI in [1], in [2], in assay [3], in [4], in assay [8] and in assay [5] was above 100 µM throughout. Further, the TGI in assay [6] and in assay [7] was above 100 µM in each case.
For the compound `Cc1c(C(=O)C/C(=N\O)C(=O)Nc2cc(Cl)c(Cl)cc2Cl)[n+](=O)c2ccccc2n1[O-]`, the TGI in assay [1] was above 100 µM; in assay [2], 23.5 µM; in assay [3] it was 26.2 µM; in assay [4], 32.8 µM; in [8] it was 39.6 µM; in assay [5], 75.7 µM. For the same compound, the TGI in [6] amounted to 9.74 µM; in [7], 16.5 µM.
For `CCCNC1=C(C(=O)OCC)C(=O)CO1`, the TGI in assay [1], in assay [2], in assay [4], in assay [8], in [5] and in assay [6] was above 100 µM throughout. The TGI in [7] was above 100 µM.
As for `COc1ccc(-c2n/c(=C\c3c(O)[nH]c4ccc(OC)cc34)cc3c2=Nc2ccccc2-3)cc1`, the GI50 in [1] is 1.92 µM; in [3] it was 3.8 µM; in assay [4] it was 2.41 µM; in assay [8], 44.5 µM; in assay [6], 2.4 µM; in [9], 11.8 µM. Moreover, the TGI in assay [1] was 3.37 µM; in assay [3], above 100 µM; in assay [4], 5.27 µM; in [8], above 100 µM; in [6], 6.9 µM; in [9] it was 40.5 µM.
Regarding `Cc1ccc(NC(=O)C(=O)C(C#N)c2ccccc2C)cc1C` (stereo not given), the TGI was above 100 µM in [1]; above 62 µM in assay [2]; above 100 µM in assay [3]; above 100 µM in assay [4]; above 100 µM in assay [8]; above 100 µM in assay [5]. For the same compound, the TGI was above 61.3 µM in assay [6] and above 100 µM in assay [7].
Take `O=C(N/C(=C\c1ccc2c(c1)OCO2)c1nc2ccccc2[nH]1)c1ccccc1`: the TGI in [1] is above 100 µM; in [2], above 100 µM; in [3], above 100 µM; in assay [4] it was 56.9 µM; in [8], above 100 µM; in [5] it was above 100 µM. Moreover, the results for the TGI in [6] and in assay [7] were above 100 µM and 56.9 µM, respectively.
Take `CCCCC(CC)CN=C(N)NC(N)=NCCCCCCN=C(N)NC(N)=NCC(CC)CCCC` (stereo not given): the GI50 in [1] was 2.16 µM; in [2] it was 2.98 µM; in [5] it was 1.63 µM; in [9], 2.21 µM; in assay [7], 1.84 µM. Moreover, the TGI is 4.91 µM in [1]; 16.5 µM in assay [2]; 3.09 µM in assay [5]; 4.9 µM in assay [9]; 4.12 µM in [7].
Regarding `COc1ccc(OC)c(NC(=O)C2=C(C)NC(C)=C(C(=O)Nc3cc(OC)ccc3OC)C2c2ccccc2)c1`, the TGI in assay [1], in assay [2], in [3], in [4], in assay [8] and in assay [5] was above 100 µM each time. Besides, the TGI in [6] and in assay [7] was above 100 µM throughout.
As to `CC1=C(Oc2ccccc2)C(CCC(=O)O)c2c(O)cc(Cl)c(O)c21` (stereo not given), the TGI in [1], in [2], in assay [3], in assay [4], in assay [5] and in assay [6] was above 100 µM in each case.
As to `Cc1ccc(C(=O)c2nnc(C(=O)c3ccc(C)cc3)nn2)cc1`, the TGI in assay [1] is above 100 µM; in [2] it was above 100 µM; in assay [3], above 100 µM; in assay [4] it was above 100 µM; in [8], above 100 µM; in [5], 55.4 µM. Besides, the TGI in assay [6] was 44.1 µM; in assay [7] it was above 100 µM.
Take `CC1=Nc2ccccc2S/C1=C(/C)NNC(=O)C(N)=O`: the TGI in assay [1], in assay [2], in [3], in [4], in assay [8] and in assay [5] was above 100 µM in each case. Also, the TGI in assay [6] and in assay [7] was above 100 µM in each case.
Consider `Cc1ccc(N=Cc2ccc3c(c2)OCO3)cc1C`, for which the TGI in assay [1], in assay [2], in [3], in assay [4], in [8] and in assay [5] was above 100 µM throughout. In addition, the TGI in assay [6] and in assay [7] was above 100 µM in each case.
Turning to `CCOc1ccc(NC(=O)C(=O)CC(=O)C2=C(C)Nc3ccccc3S2)cc1`, the TGI in assay [1], in [2], in assay [3], in assay [4], in [8] and in assay [5] was above 50 µM each time. For the same compound, the TGI in [6] and in assay [7] was above 50 µM in each case.
On to `CC1=C(C)C(=O)c2c(cc3ccccn23)C1=O`, for which the TGI in assay [1] was 72.9 µM; in [2], 29.9 µM; in assay [3] it was 31.3 µM; in [4] it was above 100 µM; in [8], 92.6 µM; in [5], 52.8 µM. For the same compound, the TGI in assay [6] was 35.5 µM; in assay [7], 35.4 µM.
As for `Cc1cc(N(CCC#N)CCC#N)ccc1N=Nc1cccc(C(=O)O)c1`, the TGI in assay [1], in [2], in assay [3], in assay [4], in [8] and in assay [5] was above 100 µM throughout. For the same compound, the TGI in assay [6] and in [7] was above 100 µM in each case.
Turning to `COc1cc(OC(C)=O)cc2c(OC(C)=O)ccc(OC(C)=O)c12`, the TGI in assay [1], in assay [2], in assay [3], in assay [4], in [8] and in [5] was above 100 µM each time. In addition, the TGI in [6] and in assay [7] was above 100 µM each time.
As for `COc1cc(C(=O)C/C(CCCC(=O)Nc2ccccc2[N+](=O)[O-])=N/NC(=O)c2cc3ccccc3cc2O)ccc1O`, the TGI was above 100 µM in assay [1]; above 74.3 µM in assay [2]; 82.5 µM in assay [3]; 77 µM in assay [4]; above 100 µM in assay [8]; above 100 µM in assay [5]. Moreover, the TGI was above 100 µM in assay [6] and 53.2 µM in assay [7].
Consider `O=C(CN1CCOCC1)Nc1nc(-c2ccc(Cl)cc2)cs1`, for which the TGI in assay [1] was above 100 µM; in [2] it was above 100 µM; in assay [3] it was 48.1 µM; in assay [4] it was 42.6 µM; in assay [8], above 100 µM; in [5], above 100 µM. Also, the TGI in [6] is above 100 µM; in [7], 53.3 µM.
For `COC(=O)C(=O)C1(CCC(C)=O)c2ccccc2-c2c(C)ccc(C)c21` (stereo not given), the TGI in [1] was above 100 µM; in [2], above 100 µM; in assay [3], above 100 µM; in [4], 66 µM; in [8], above 100 µM; in assay [5] it was above 100 µM. Also, the TGI in assay [6] and in assay [7] was above 100 µM each time.

For the origin of these results see PubChem BioAssay (NCI).
